# Laboratory results reported in US9572833B2, “Treatment of red blood cells” (The General Hospital Corporation, priority 2011, dated 2017).
# Tests used:
# NOS = assay: Partial inhibition of NOS by L-NAME in lambs (acetylcholine / sodium nitroprusside vasodilation, hemodynamics); format: in vivo
# Procedure: (§1) Three additional groups of lambs were studied after intravenous infusion of the NOS inhibitor, N^G-nitro-L-arginine methyl-ester (L-NAME, Sigma-Aldrich, St. Louis, Mo.). A bolus of 25 mg/kg L-NAME was injected IV 1 h before transfusion (Weimann et al., Anesthesiology 2000; 92:1702-12). Concomitantly, an infusion of 5 mg/kg/h L-NAME was started and continued throughout the study. […] NOS-independent systemic vasodilation was also assessed by intravenous injection of sodium nitroprusside (Sigma-Aldrich) at the end of each experiment.
# supernatant hemoglobin [1] = molecular target: T1, supernatant hemoglobin (Homo sapiens, UniProt P68871+P69905); assay: MAHMA/NO treatment of human stored red blood cells; format: biochemical; settings: human RBC stored 46 days
# T1 construct: 99% of the supernatant hemoglobin being oxidized to methemoglobin; from tissue; host or cells: human stored red blood cells (46 days), supernatant and cells
# T1 sequence (P69905 2-142 limits assumed): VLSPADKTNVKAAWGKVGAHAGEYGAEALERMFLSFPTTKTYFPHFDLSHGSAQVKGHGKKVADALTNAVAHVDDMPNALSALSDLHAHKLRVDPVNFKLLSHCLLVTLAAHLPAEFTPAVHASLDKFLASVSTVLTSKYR
# T1 sequence (P68871 2-147 limits assumed): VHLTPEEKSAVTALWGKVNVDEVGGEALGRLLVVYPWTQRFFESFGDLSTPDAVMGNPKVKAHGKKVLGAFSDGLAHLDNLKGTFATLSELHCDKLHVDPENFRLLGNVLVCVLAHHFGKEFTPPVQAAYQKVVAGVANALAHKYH
# Procedure: Human stored red blood cells (stored, 46 days) were treated with MAHMA/NO ((Z)-1-[N-Methyl-N-[6-(N-methylammoniohexyl)amino]]diazen-1-ium-1,2-diolate). […] In contrast, only 15% of the red blood cell hemoglobin was oxidized by this treatment (FIG. 14A).
# supernatant hemoglobin [2] = molecular target: T2, supernatant hemoglobin (Mus musculus, UniProt P01942+P02088); assay: MAHMA/NO treatment of murine stored red blood cells; format: biochemical; settings: murine RBC stored 14 days
# T2 construct: from tissue; host or cells: murine stored red blood cells (14 days), supernatant
# T2 sequence (P01942 2-142 limits assumed): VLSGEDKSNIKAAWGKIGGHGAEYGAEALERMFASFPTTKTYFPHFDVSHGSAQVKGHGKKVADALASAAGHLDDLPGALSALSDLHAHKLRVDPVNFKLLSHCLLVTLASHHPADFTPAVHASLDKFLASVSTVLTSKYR
# T2 sequence (P02088 2-147 limits assumed): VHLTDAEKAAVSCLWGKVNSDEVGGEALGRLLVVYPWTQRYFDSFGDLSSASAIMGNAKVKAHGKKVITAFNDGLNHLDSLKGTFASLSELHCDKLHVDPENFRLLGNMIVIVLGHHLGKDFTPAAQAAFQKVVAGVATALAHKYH
# Description: This is likely due to the higher levels of hemolysis observed in murine red blood cell storage. At baseline levels, hemolysis is higher than in human stored red blood cells, and increasing concentrations of MAHMA/NO were required to fully oxidize the […] hemoglobin.
# [3] = Tail-cuff systolic blood pressure in db/db mice after infusion of MAHMA/NO pre-treated stored red blood cells; format: in vivo; settings: SRBC pre-treated with 1 mM MAHMA/NO; awake db/db mice
# Procedure: Murine stored red blood cells were pretreated with 1 mM MAHMA before infusion into db/db mice.
# human hemoglobin = molecular target: T3, human hemoglobin (Homo sapiens, UniProt P68871+P69905); assay: Methemoglobin conversion after nitric oxide gas treatment of red blood cells via membrane gas exchanger; format: biochemical; settings: 2600 ppm nitric oxide in nitrogen, single pass
# T3 construct: from tissue; host or cells: human red blood cells (adsol-preserved) plus plasma with added human hemoglobin
# T3 sequence (P69905 2-142 limits assumed): as the sequence (P69905 2-142 limits assumed) above
# T3 sequence (P68871 2-147 limits assumed): as the sequence (P68871 2-147 limits assumed) above
# Procedure: Plasma containing added human hemoglobin was added to adsol-preserved human red blood cells. The red blood cells were pumped (at flow rates of 5, 7.5, and 10 ml/min) through a membrane gas exchanger (Living Systems instrumentation Inc., St. Albans, Vt.), which exposed the cells (on a single pass through the gas exchanger) to 2600 ppm nitric oxide gas in nitrogen.
# [4] = Hemodynamic effects of PRBC transfusion in awake lambs; format: in vivo; settings: 80 ppm during transfusion and 30 min thereafter, no L-NAME
# Procedure: (§2) Invasive hemodynamic measurements were performed in 28 lambs. Anesthesia was induced by breathing 5% isoflurane (Baxter, Deerfield, Ill.) in oxygen via mask. After endotracheal intubation, animals underwent a tracheostomy and were instrumented with indwelling carotid artery and pulmonary artery catheters, as previously described (Yu et al., Anesthesiology 2010; 112:586-94). After a 2-h recovery period from general anesthesia in a large-animal restraint unit (Lomir, Malone, N.Y.), the mean arterial pressure (MAP), mean pulmonary arterial pressure (PAP), and central venous pressure were monitored continuously using a Gould 6600 amplifier system (Gould Electronics, Inc., Eastlake, Ohio). Pulmonary capillary wedge pressure (PCWP) and heart rate were intermittently measured every 10-30 min. Cardiac output was assessed by thermal dilution as the average of three measurements after intravenous bolus-injection of 10 ml ice-cold saline solution. Systemic vascular resistance index and pulmonary vascular resistance index (PVRI), as well as cardiac index, were calculated using standard formulae. Hemodynamic data was collected until 4 h after the end of transfusion.
# Six groups of awake lambs were studied. […]
# [5] = Hemodynamic effects of PRBC transfusion in lamb model of L-NAME-induced endothelial dysfunction; format: in vivo; settings: lambs pretreated with L-NAME
# Procedure: as §2, §1
# After L-NAME treatment, a fourth group of lambs (n=4) received fresh PRBCs, and a fifth group (n=5) received stored PRBCs. In the sixth group (n=4), following L-NAME injection, inhalation of 80 ppm nitric oxide at FiO2 0.25 was commenced 10 min prior to transfusion of stored PRBC. Nitric oxide breathing continued throughout the transfusion and for 30 min after transfusion ended.
# [6] = Non-invasive measurement of systolic blood pressure in awake mice after transfusion; format: in vivo; settings: awake db/db mice; 80 ppm from 10 min prior to transfusion until 2 h after
# Procedure: Systolic blood pressure was measured with a non-invasive blood pressure system (XBP 1000, Kent Scientific, Torrington, Conn.) (Yu et al., Circulation 2008; 117: 1982-90; Yu et al., Anesthesiology 2010; 112: 586-94). All tail vein injections were performed over one minute.
# [7] = 25 mg/kg IV bolus plus 5 mg/kg/h infusion
compound,measurement,setting,value
"COC(=O)[C@@H](N)CCCNC(=N)N[N+](=O)[O-] [L-NAME, N^G-nitro-L-arginine methyl-ester]",Reduction in the ability of acetylcholine infusion to induce systemic vasodilation,NOS; [7],50%
same,Vasodilator response to intravenous bolus of sodium nitroprusside,NOS; [7],did not alter the vasodilator response
same,Cardiac index and heart rate after L-NAME infusion,NOS; awake lambs,decreased
same,"MAP, PAP, central venous pressure, PCWP, systemic and pulmonary vascular resistance indices after L-NAME infusion",NOS; awake lambs,increased
"CNCCCCCCN(C)/[N+]([O-])=N/O [MAHMA/NO, (Z)-1-[N-Methyl-N-[6-(N-methylammoniohexyl)amino]]diazen-1-ium-1,2-diolate]",Red blood cell hemoglobin oxidized,supernatant hemoglobin [1]; 0.5 mM,15%
same,Supernatant hemoglobin oxidized to methemoglobin,supernatant hemoglobin [1]; 0.5 mM,99%
same,Hemolysis after addition of MAHMA/NO,supernatant hemoglobin [1],no further hemolysis
same,Supernatant methemoglobin,supernatant hemoglobin [2]; 1 mM,70%
same,Level of cell-free hemoglobin in the supernatant,supernatant hemoglobin [2],decreases upon addition of MAHMA/NO
same,Hypertensive effect caused by infusion of stored red blood cells,[3],attenuated the hypertensive effect
[N]=O [nitric oxide],Human red cell hemoglobin converted to methemoglobin,human hemoglobin,only a few percent
same,Supernatant oxyhemoglobin converted to methemoglobin,"human hemoglobin; flow 5, 7.5, 10 ml/min, adsol-preserved human RBC",approximately 50%
same,PAP with transfusion of stored PRBCs while breathing nitric oxide,[4]; baseline 12±1,13±1 mmHg
same,PVRI with transfusion of stored PRBCs while breathing nitric oxide,[4]; baseline 107±14,105±22 dyn·sec·cm^−5·m^−2
same,Effect of inhalation of nitric oxide on MAP,[5]; 80 ppm,did not alter MAP
same,Effect of concurrent inhalation of nitric oxide on PAP and PVRI,"[5]; 80 ppm, stored PRBC transfusion",reduced the PAP and PVRI to baseline
same,Time after end of nitric oxide breathing at which PAP and PVRI returned to pre-transfusion levels,[5],60 min
same,Effect of breathing nitric oxide on systemic hypertension induced by SRBC transfusion,[6],completely prevented the systemic hypertension
